The supplement of paper PMC10627819

How the values were obtained:
Assay in all cases: fitness (endpoint OD595 vs no drug) (fraction); higher = more growth
B. subtilis 168 = tested on: B. subtilis 168
Method in brief: (§1)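 Fitness is computed from the optical density at which cultures reach stationary phase, divided by the robust mean of no-drug control wells. Any value above 1 is set to 1. Cultures started at OD595 0.01 in 384-well plates with TSB, LB Lennox or CY at 37 °C, and OD595 was read every 30 min for 14 h against a first-reading background.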

S. aureus DSM 20231 = tested on: S. aureus DSM 20231
Method in brief: as §1

S. pneumoniae D39V = tested on: S. pneumoniae D39V
Method in brief: as §1
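Note: OD595 on entry to stationary phase over no-drug wells; at most 1.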

CN(C)[C@@H]1C(O)=C(C(N)=O)C(=O)[C@@]2(O)C(O)=C3C(=O)c4c(O)ccc(Cl)c4[C@@](C)(O)[C@H]3C[C@@H]12 [Chlortetracycline] + COc1cc(Cc2cnc(N)nc2N)cc(OC)c1OC [Trimethoprim]
one replicate
Conditions | fitness
B. subtilis 168, first compound 0.0475 µg/mL, partner 0.1 µg/mL | 0.82
B. subtilis 168, first compound 0.0475 µg/mL, partner 0.2 µg/mL | 0.735
B. subtilis 168, first compound 0.0475 µg/mL, partner 0.4 µg/mL | 0.637
B. subtilis 168, first compound 0.0475 µg/mL, partner 1 µg/mL | 0.296
B. subtilis 168, first compound 0.0475 µg/mL, partner 2 µg/mL | 0.305
B. subtilis 168, first compound 0.095 µg/mL, partner 0.1 µg/mL | 0.81
B. subtilis 168, first compound 0.095 µg/mL, partner 0.2 µg/mL | 0.707
B. subtilis 168, first compound 0.095 µg/mL, partner 0.4 µg/mL | 0.531
B. subtilis 168, first compound 0.095 µg/mL, partner 1 µg/mL | 0.132
B. subtilis 168, first compound 0.095 µg/mL, partner 2 µg/mL | 0.119
B. subtilis 168, first compound 0.19 µg/mL, partner 0.1 µg/mL | 0.599
B. subtilis 168, first compound 0.19 µg/mL, partner 0.2 µg/mL | 0.421
B. subtilis 168, first compound 0.19 µg/mL, partner 0.4 µg/mL | 0.279
B. subtilis 168, first compound 0.19 µg/mL, partner 1 µg/mL | 0.0652
B. subtilis 168, first compound 0.19 µg/mL, partner 2 µg/mL | 0.0699
S. aureus DSM 20231, first compound 0.006 µg/mL, partner 0.125 µg/mL | 0.656
S. aureus DSM 20231, first compound 0.006 µg/mL, partner 0.25 µg/mL | 0.606
S. aureus DSM 20231, first compound 0.006 µg/mL, partner 0.5 µg/mL | 0.509
S. aureus DSM 20231, first compound 0.048 µg/mL, partner 0.125 µg/mL | 0.0947

fitness
Conditions | partner 0.125 µg/mL | partner 0.25 µg/mL | partner 0.5 µg/mL | partner 1 µg/mL
B. subtilis 168, first compound 0.0475 µg/mL | 0.762 | 0.62 | – | –
B. subtilis 168, first compound 0.095 µg/mL | 0.673 | 0.548 | – | –
B. subtilis 168, first compound 0.19 µg/mL | 0.52 | 0.406 | 0.279 | –
S. aureus DSM 20231, first compound 0.012 µg/mL | 0.47 | 0.545 | 0.36 | 0.0767
S. aureus DSM 20231, first compound 0.024 µg/mL | 0.159 | – | 0.171 | 0.0593
S. aureus DSM 20231, first compound 0.048 µg/mL | – | 0.117 | 0.0724 | 0.042

CN(C)[C@@H]1C(O)=C(C(N)=O)C(=O)[C@@]2(O)C(O)=C3C(=O)c4c(O)ccc(Cl)c4[C@@](C)(O)[C@H]3C[C@@H]12 [Chlortetracycline] + Cn1nnc(-c2ccc(-c3ccc(N4C[C@H](CO)OC4=O)cc3F)cn2)n1 [Tedizolid]
fitness
Conditions | first compound 0.012 µg/mL | first compound 0.024 µg/mL | first compound 0.048 µg/mL | first compound 0.375 µg/mL | first compound 0.75 µg/mL | first compound 1.5 µg/mL
S. aureus DSM 20231, partner 0.0625 µg/mL | 0.496 | 0.236 | 0.0517 | – | – | –
S. aureus DSM 20231, partner 0.125 µg/mL | 0.532 | 0.172 | 0.0562 | – | – | –
S. aureus DSM 20231, partner 0.25 µg/mL | 0.25 | 0.161 | 0.102 | – | – | –
S. pneumoniae D39V, partner 0.03125 µg/mL | 0.966 | 0.949 | 0.944 | – | – | –
S. pneumoniae D39V, partner 0.0625 µg/mL | 0.95 | 0.962 | 0.878 | – | – | –
S. pneumoniae D39V, partner 0.125 µg/mL | 0.795 | 0.789 | 0.845 | 0.0202 | 0.0366 | 0.0518
S. pneumoniae D39V, partner 0.25 µg/mL | – | – | – | 0.0375 | 0.043 | 0.0385
S. pneumoniae D39V, partner 0.5 µg/mL | – | – | – | 0.0294 | 0.0348 | 0.0435

S. aureus DSM 20231, first compound 0.006 µg/mL, one replicate
Conditions | fitness
partner 0.0625 µg/mL | 0.696
partner 0.125 µg/mL | 0.659
partner 0.25 µg/mL | 0.361

CN(C)[C@@H]1C(O)=C(C(N)=O)C(=O)[C@@]2(O)C(O)=C3C(=O)c4c(O)ccc(Cl)c4[C@@](C)(O)[C@H]3C[C@@H]12 [Chlortetracycline] + N[C@@H]1CONC1=O [Cycloserine D]
fitness
Conditions | first compound 0.012 µg/mL | first compound 0.024 µg/mL | first compound 0.0475 µg/mL | first compound 0.048 µg/mL | first compound 0.095 µg/mL | first compound 0.19 µg/mL
B. subtilis 168, partner 0.125 µg/mL | – | – | 0.936 | – | 0.784 | 0.515
B. subtilis 168, partner 0.25 µg/mL | – | – | 0.894 | – | 0.782 | 0.439
B. subtilis 168, partner 0.5 µg/mL | – | – | 0.899 | – | 0.764 | 0.515
S. aureus DSM 20231, partner 0.375 µg/mL | 0.667 | 0.241 | – | 0.0627 | – | –
S. aureus DSM 20231, partner 0.75 µg/mL | 0.623 | 0.249 | – | 0.0661 | – | –
S. aureus DSM 20231, partner 1.5 µg/mL | 0.68 | 0.264 | – | 0.0906 | – | –

S. aureus DSM 20231, first compound 0.006 µg/mL, one replicate
Conditions | fitness
partner 0.375 µg/mL | 0.804
partner 0.75 µg/mL | 0.782
partner 1.5 µg/mL | 0.804
